Results from patent US20240010729A1, “COMBINATION THERAPY OF A PD-1 ANTAGONIST AND LAG3 ANTAGONIST AND LENVATINIB OR A PHARMACEUTICALLY ACCEPTABLE SALT THEREOF FOR TREATING PATIENTS WITH CANCER” (MERCK SHARP & DOHME LLC, priority 2020, published 2024).

Experiments:
CT26 colorectal model = experiment: CT26 mouse syngeneic tumor model (tumor growth inhibition, survival); conditions: CT26, Day 17; lenvatinib 10 mg/kg oral QD, antibodies 10 mg/kg i.p. every 5 days
Description: Prior to treatment initiation, female BALB/c mice (for CT26 study) or C57BL/6J mice (for KPC-2838c3 study) aged 8 weeks weighing between 18 to 21 grams were anesthetized and subcutaneously injected into the rear flank with 0.3×10^6 CT26 or 0.5×10^6 KPC-2838c3 log-phase sub-confluent cells. When the mean tumor volume of inoculated animals reached approximately 100 mm^3 (II days later for CT26, 15 days later for KPC-2838c3) mice were pair-matched into 8 treatment groups consisting of 10 mice per group. Treatment groups consisted of: 1) 0.5% methylcellulose (Vehicle)+Isotype mouse IgG1 antibody (migG1); 2) Vehicle+anti-PD-1 mIgG1 antibody (muDX400); 3) Vehicle+anti-LAG3 mIgG1 antibody (28G10); 4) Lenvatinib+isotype; 5) Vehicle+anti-PD-1+anti-LAG3; 6) Lenvatinib+anti-PD-1; 7) Lenvatinib+anti-LAG3; 8) Lenvatinib+anti-PD-1+anti-LAG3. Vehicle and lenvatinib were orally gavage-dosed once daily (QD) at 10 mg/kg body weight. Isotype control, a mouse monoclonal antibody specific for adenoviral hexon of the isotype IgG1, as well as anti-PD-1 and anti-LAG3 antibodies were dosed intraperitoneally every 5 days at 10 mg/kg body weight. Start of treatments was considered Day 0 and dosing based on schedules continued as described until Day 35. Caliper measurements of tumors and body weights were captured twice weekly. […]

[1] = system: mCRC that is non MSI-H/pMMR; conditions: third line mCRC patients; cited from earlier work

Structure (SMILES)	TGI (tumor growth inhibition) respective to Vehicle-treated animals (CT26 colorectal model)	6-month PFS rate [1]
COc1cc2nccc(Oc3ccc(NC(=O)NC4CC4)c(Cl)c3)c2cc1C(N)=O [Lenvatinib, 4-[3-chloro-4-(cyclopropylaminocarbonyl)aminophenoxy]-7-methoxy-6-quinolinecarboxamide]	54%	–
CNC(=O)c1cc(Oc2ccc(NC(=O)Nc3ccc(Cl)c(C(F)(F)F)c3)c(F)c2)ccn1 [regorafenib]	–	~15%
